Tests used:
[1] = In vitro anticholinesterase activity against butyrylcholinesterase from torpedo californica
[2] = In vitro binding affinity was determined against butyrylcholinesterase from torpedo californica

SMILES	IC50 [1] [µM]	Ki [2] [µM]
C/C=C(\C)C(=O)NC1C=C2CC[C@@H]3[C@H](CC[C@]4(C)C([C@H](C)N(C)C)=CC[C@@H]34)[C@@]2(C)C[C@H]1O (stereo partly drawn) [1N-[14-[1-dimethylamino-(1S)-ethyl]-4-hydroxy-2,15-dimethyl-(1S,2R,4R,5R,10S,11S,15S)-tetracyclo[8.7.0.02,7.011,15]heptadeca-6,13-dien-5-yl]-2-methyl-(E)-2-butenamide]	23.8	–
C[C@@H]([C@H]1CC[C@H]2[C@@H]3CC[C@H]4C[C@@H](N(C)C(=O)/C=C/c5ccccc5)CC[C@]4(C)[C@H]3CC[C@]12C)N(C)C [(E)-N-[(3S,5S,8R,9S,10S,13S,14S,17S)-17-((S)-1-Dimethylamino-ethyl)-10,13-dimethyl-hexadecahydro-cyclopenta[a]phenanthren-3-yl]-N-methyl-3-phenyl-acrylamide]	4.84	6.6
C/C=C(\C)C(=O)N[C@H]1CC[C@@]2(C)C(=CC[C@H]3C4=CC[C@H]([C@H](C)N(C)C)[C@@]4(C)CC[C@@H]32)C1=O [(E)-2-Methyl-but-2-enoic acid [(3S,8R,9S,10R,13R,17S)-17-((S)-1-dimethylamino-ethyl)-10,13-dimethyl-4-oxo-2,3,4,7,8,9,10,11,12,13,16,17-dodecahydro-1H-cyclopenta[a]phenanthren-3-yl]-amide]	4.29	1.6
C/C(=C\C(=O)N[C@H]1CC[C@@]2(C)[C@@H](CC[C@@H]3[C@@H]2CC[C@]2(C)[C@@H]([C@H](C)N(C)C)CC[C@@H]32)C1)C(C)C [3,4-Dimethyl-pent-2-enoic acid [(3S,5S,8R,9S,10S,13S,14S,17S)-17-(1-dimethylamino-ethyl)-10-methyl-13-(S)-methyl-hexadecahydro-cyclopenta[a]phenanthren-3-yl]-amide]	4.63	3.25
C/C=C(\C)C(=O)N[C@@H]1[C@H](OC(C)=O)[C@@H]2CC[C@H]3C4=CC[C@H]([C@H](C)N(C)C)[C@@]4(C)CC[C@@H]3[C@@]2(C)C[C@@H]1O [Acetic acid (2S,3S,4R,5R,8R,9S,10R,13R,17S)-17-((S)-1-dimethylamino-ethyl)-2-hydroxy-10,13-dimethyl-3-((E)-2-methyl-but-2-enoylamino)-2,3,4,5,6,7,8,9,10,11,12,13,16,17-tetradecahydro-1H-cyclopenta[a]phenanthren-4-yl ester]	38.4	26.3
CN[C@H]1CC[C@@]2(C)[C@@H](CC[C@@H]3[C@@H]2CC[C@]2(C)[C@@H]([C@H](C)N(C)C(C)=O)CC[C@@H]32)C1 [N-Methyl-N-[1-((3S,5S,8R,9S,10S,13S,14S,17S)-10-methyl-13-(S)-methyl-3-methylamino-hexadecahydro-cyclopenta[a]phenanthren-17-yl)-ethyl]-acetamide]	16.5	8.6
CC(=O)O[C@H]1[C@@H](NC(=O)C=C(C)C)CC[C@]2(C)[C@H]3CC[C@]4(C)[C@@H]([C@H](C)N(C)C)CC[C@H]4[C@@H]3CC[C@@H]12 [Acetic acid (1S,6R,7R,10R,11S,12S,15S,16S)-17-((S)-1-dimethylamino-ethyl)-10,13-dimethyl-3-(3-methyl-but-2-enoylamino)-hexadecahydro-cyclopenta[a]phenanthren-4-yl ester]	2.3	2.58
C/C=C(\C)C(=O)N[C@@H]1[C@H](OC(C)=O)[C@@H]2CC[C@@H]3[C@H](CC[C@]4(C)[C@@H]([C@H](C)N(C)C)CC[C@@H]34)[C@@]2(C)C[C@@H]1O [Acetic acid (1S,4S,6R,7R,10R,11S,12S,15S,16S)-17-((S)-1-dimethylamino-ethyl)-2-(S)-hydroxy-10,13-dimethyl-3-((E)-2-methyl-but-2-enoylamino)-hexadecahydro-cyclopenta[a]phenanthren-4-yl ester]	18.2	–
C[C@@H]([C@H]1CC[C@H]2[C@@H]3CC[C@H]4C[C@@H](NC(=O)c5ccccc5)[C@@H](O)C[C@]4(C)[C@H]3CC[C@]12C)N(C)C [N-[(2S,3R,5S,8R,9S,10S,13S,14S,17S)-17-(1-Dimethylamino-ethyl)-2-hydroxy-10-methyl-13-(S)-methyl-hexadecahydro-cyclopenta[a]phenanthren-3-yl]-benzamide]	28.9	16.2
C/C(=C\C(=O)N(C)[C@H]1CC[C@@]2(C)[C@@H](CC[C@@H]3[C@@H]2CC[C@]2(C)[C@@H]([C@H](C)N(C)C)CC[C@@H]32)C1)C(C)C [(E)-3,4-Dimethyl-pent-2-enoic acid [(3S,5S,8R,9S,10S,13S,14S,17S)-17-((S)-1-dimethylamino-ethyl)-10,13-dimethyl-hexadecahydro-cyclopenta[a]phenanthren-3-yl]-methyl-amide]	4.07	3.4
CC(=O)N[C@H]1CC[C@@]2(C)[C@@H](CC[C@@H]3[C@@H]2CC[C@]2(C)[C@@H]([C@H](C)N(C)C)CC[C@@H]32)C1 [N-[(3S,5S,8R,9S,10S,13S,14S,17S)-17-((S)-1-Dimethylamino-ethyl)-10,13-dimethyl-hexadecahydro-cyclopenta[a]phenanthren-3-yl]-acetamide]	10.3	7.5
CC(=O)O[C@H]1[C@@H](NC(=O)c2ccccc2)[C@@H](O)C[C@]2(C)[C@H]3CC[C@]4(C)[C@@H]([C@H](C)N(C)C)CC[C@H]4[C@@H]3CC[C@@H]12 [Acetic acid (2S,3S,4R,5R,8S,9S,10R,13S,14S,17S)-3-benzoylamino-17-(1-dimethylamino-ethyl)-2-hydroxy-10-methyl-13-(S)-methyl-hexadecahydro-cyclopenta[a]phenanthren-4-yl ester]	18	20.3
C/C=C(\C)C(=O)N[C@H]1CC[C@@]2(C)C(=CC[C@H]3[C@@H]4CC[C@H]([C@H](C)N(C)C)[C@@]4(C)CC[C@@H]32)C1=O [(E)-2-Methyl-but-2-enoic acid [(3S,8S,9S,10R,13S,14S,17S)-17-((S)-1-dimethylamino-ethyl)-10,13-dimethyl-4-oxo-2,3,4,7,8,9,10,11,12,13,14,15,16,17-tetradecahydro-1H-cyclopenta[a]phenanthren-3-yl]-amide]	2.1	3.08
C[C@@H]([C@H]1CC[C@H]2[C@@H]3CC[C@H]4C(=O)C(NC(=O)c5ccccc5)=CC[C@]4(C)[C@H]3CC[C@]12C)N(C)C [N-[(5R,8S,9S,10R,13S,14S,17S)-17-((S)-1-Dimethylamino-ethyl)-10,13-dimethyl-4-oxo-4,5,6,7,8,9,10,11,12,13,14,15,16,17-tetradecahydro-1H-cyclopenta[a]phenanthren-3-yl]-benzamide]	2.49	2.15
C/C(=C\C(=O)N(C)[C@H]1CC[C@@]2(C)[C@@H](CC[C@@H]3[C@@H]2CC[C@]2(C)C([C@H](C)N(C)C)=CC[C@@H]32)C1)C(C)C [1N-[14-(1-dimethylaminoethyl)-2,15-dimethyl-(1S,7S,10R,11S)-tetracyclo[8.7.0.02,7.011,15]heptadec-13-en-5-yl]-1N,3,4-trimethyl-(E)-2-pentenamide]	3.65	9.1
